Experimental findings from PubChem BioAssay AID1745844 (Carcinogenic Potency Database (CPDB), 2022) are described below.

SMILES strings stand for the structures. Activity calls are given as the source filed them. How the calls were made is not given here.

This data set deals with rodent lifetime carcinogenesis bioassay, tumor incidence TD50. Kind of data set: carcinogenic potency in animals, long-term in vivo studies, CPDB compilation (AID 1745844).

What is called TD50 is the 50% point of the dose-response relation for the toxic effect studied. Take `C1COCCO1`: the TD50 by setting is: (mouse, strain B6C3F1, females, in drinking water, site: any site (literature study), lesion: several types, types named in the paper, dosed 90 weeks, study length 90 weeks) 847 mg/kg/day; (mouse, strain B6C3F1, females, in drinking water, site: liver, lesion: hepatocellular adenoma + hepatocellular carcinoma + neoplastic nodule, dosed 90 weeks, study length 90 weeks) 594 mg/kg/day; (mouse, strain B6C3F1, females, in drinking water, site: liver, lesion: hepatocellular adenoma + hepatocellular carcinoma, dosed 90 weeks, study length 90 weeks) 594 mg/kg/day; (mouse, strain B6C3F1, females, in drinking water, site: liver, lesion: hepatocellular carcinoma, dosed 90 weeks, study length 90 weeks) 938 mg/kg/day; (mouse, strain B6C3F1, females, in drinking water, site: lung, lesion: alveolar/bronchiolar adenoma + alveolar/bronchiolar carcinoma, dosed 90 weeks, study length 90 weeks) 71900 mg/kg/day; (mouse, strain B6C3F1, males, in drinking water, site: all sites, lesion: hemangioma + hemangiosarcoma, dosed 90 weeks, study length 91 weeks) 3150 mg/kg/day. Also, the TD50 was 3930 mg/kg/day (mouse, strain B6C3F1, males, in drinking water, site: all sites, lesion: lymphoma, dosed 90 weeks, study length 91 weeks); 1880 mg/kg/day (mouse, strain B6C3F1, males, in drinking water, site: any site (literature study), lesion: several types, types named in the paper, dosed 90 weeks, study length 91 weeks); 1460 mg/kg/day (mouse, strain B6C3F1, males, in drinking water, site: liver, lesion: hepatocellular adenoma + hepatocellular carcinoma + neoplastic nodule, dosed 90 weeks, study length 91 weeks); 1460 mg/kg/day (mouse, strain B6C3F1, males, in drinking water, site: liver, lesion: hepatocellular adenoma + hepatocellular carcinoma, dosed 90 weeks, study length 91 weeks); 1420 mg/kg/day (mouse, strain B6C3F1, males, in drinking water, site: liver, lesion: hepatocellular carcinoma, dosed 90 weeks, study length 91 weeks); 83.1 mg/kg/day (mouse, strain BDF1, females, in drinking water, site: liver, lesion: hepatocellular adenoma, dosed 104 weeks, study length 105 weeks). Further, the TD50 by setting is: (mouse, strain BDF1, females, in drinking water, site: liver, lesion: hepatocellular carcinoma, dosed 104 weeks, study length 105 weeks) 404 mg/kg/day; (mouse, strain BDF1, females, in drinking water, site: liver, lesion: several types, types named in the paper, dosed 104 weeks, study length 105 weeks) 65.5 mg/kg/day; (mouse, strain BDF1, females, in drinking water, site: nasal cavity, lesion: adenocarcinoma, dosed 104 weeks, study length 105 weeks) 72100 mg/kg/day; (mouse, strain BDF1, males, in drinking water, site: liver, lesion: hepatocellular adenoma, dosed 104 weeks, study length 105 weeks) 519 mg/kg/day; (mouse, strain BDF1, males, in drinking water, site: liver, lesion: hepatocellular carcinoma, dosed 104 weeks, study length 105 weeks) 1040 mg/kg/day; (mouse, strain BDF1, males, in drinking water, site: liver, lesion: several types, types named in the paper, dosed 104 weeks, study length 105 weeks) 982 mg/kg/day. Also, the TD50 was 60100 mg/kg/day (mouse, strain BDF1, males, in drinking water, site: nasal cavity, lesion: esthesioneuroepithelioma, dosed 104 weeks, study length 105 weeks); 2950 mg/kg/day (rat, strain Charles River CD (Sprague-Dawley), males, in drinking water, site: nasal cavity, lesion: squamous-cell carcinoma, dosed 56 weeks, study length 69 weeks); 182 mg/kg/day (rat, strain F344/DuCrj, females, in drinking water, site: liver, lesion: hepatocellular adenoma, dosed 104 weeks, study length 105 weeks); 1120 mg/kg/day (rat, strain F344/DuCrj, females, in drinking water, site: liver, lesion: hepatocellular carcinoma, dosed 104 weeks, study length 105 weeks); 167 mg/kg/day (rat, strain F344/DuCrj, females, in drinking water, site: liver, lesion: several types, types named in the paper, dosed 104 weeks, study length 105 weeks); 772 mg/kg/day (rat, strain F344/DuCrj, females, in drinking water, site: mammary gland, lesion: adenoma, dosed 104 weeks, study length 105 weeks). The TD50 by setting is: (rat, strain F344/DuCrj, females, in drinking water, site: nasal cavity, lesion: esthesioneuroepithelioma, dosed 104 weeks, study length 105 weeks) 12200 mg/kg/day; (rat, strain F344/DuCrj, females, in drinking water, site: nasal cavity, lesion: malignant tumor, dosed 104 weeks, study length 105 weeks) 1430 mg/kg/day; (rat, strain F344/DuCrj, females, in drinking water, site: nasal cavity, lesion: squamous-cell carcinoma, dosed 104 weeks, study length 105 weeks) 1650 mg/kg/day; (rat, strain F344/DuCrj, males, in drinking water, site: liver, lesion: hepatocellular adenoma, dosed 104 weeks, study length 105 weeks) 279 mg/kg/day; (rat, strain F344/DuCrj, males, in drinking water, site: liver, lesion: hepatocellular carcinoma, dosed 104 weeks, study length 105 weeks) 676 mg/kg/day; (rat, strain F344/DuCrj, males, in drinking water, site: liver, lesion: several types, types named in the paper, dosed 104 weeks, study length 105 weeks) 189 mg/kg/day. In addition, the TD50 by setting is: (rat, strain F344/DuCrj, males, in drinking water, site: mammary gland, lesion: fibroadenoma, dosed 104 weeks, study length 105 weeks) 3070 mg/kg/day; (rat, strain F344/DuCrj, males, in drinking water, site: nasal cavity, lesion: esthesioneuroepithelioma, dosed 104 weeks, study length 105 weeks) 10600 mg/kg/day; (rat, strain F344/DuCrj, males, in drinking water, site: nasal cavity, lesion: malignant tumor, dosed 104 weeks, study length 105 weeks) 1440 mg/kg/day; (rat, strain F344/DuCrj, males, in drinking water, site: nasal cavity, lesion: rhabdomyosarcoma, dosed 104 weeks, study length 105 weeks) 10600 mg/kg/day; (rat, strain F344/DuCrj, males, in drinking water, site: nasal cavity, lesion: sarcoma, NOS, dosed 104 weeks, study length 105 weeks) 5270 mg/kg/day; (rat, strain F344/DuCrj, males, in drinking water, site: nasal cavity, lesion: squamous-cell carcinoma, dosed 104 weeks, study length 105 weeks) 3490 mg/kg/day. For the same compound, the TD50 (rat, strain F344/DuCrj, males, in drinking water, site: peritoneum, lesion: mesothelioma, dosed 104 weeks, study length 105 weeks) is 246 mg/kg/day; the TD50 (rat, strain F344/DuCrj, males, in drinking water, site: subcutaneous tissue, lesion: fibroma, dosed 104 weeks, study length 105 weeks) was 922 mg/kg/day; the TD50 (rat, strain Osborne-Mendel, females, in drinking water, site: any site (literature study), lesion: several types, types named in the paper, dosed 110 weeks, study length 111 weeks) turned out to be 40.5 mg/kg/day; the TD50 (rat, strain Osborne-Mendel, females, in drinking water, site: liver + nasal turbinate, lesion: hepatocellular adenoma + squamous-cell carcinoma, dosed 110 weeks, study length 111 weeks) came out at 126 mg/kg/day; the TD50 (rat, strain Osborne-Mendel, females, in drinking water, site: liver, lesion: hepatocellular adenoma + hepatocellular carcinoma + neoplastic nodule, dosed 110 weeks, study length 111 weeks) amounted to 124 mg/kg/day; the TD50 (rat, strain Osborne-Mendel, females, in drinking water, site: liver, lesion: hepatocellular adenoma, dosed 110 weeks, study length 111 weeks) is 160 mg/kg/day. For the same compound, the TD50 is, setting by setting: (rat, strain Osborne-Mendel, females, in drinking water, site: nasal turbinate, lesion: squamous-cell carcinoma, dosed 110 weeks, study length 111 weeks) 476 mg/kg/day; (rat, strain Osborne-Mendel, males, in drinking water, site: any site (literature study), lesion: several types, types named in the paper, dosed 110 weeks, study length 110 weeks) 114 mg/kg/day; (rat, strain Osborne-Mendel, males, in drinking water, site: liver, lesion: hepatocellular adenoma + hepatocellular carcinoma + neoplastic nodule, dosed 110 weeks, study length 110 weeks) 796 mg/kg/day; (rat, strain Osborne-Mendel, males, in drinking water, site: nasal turbinate, lesion: squamous-cell carcinoma, dosed 110 weeks, study length 110 weeks) 168 mg/kg/day; (rat, strain Sherman, both sexes, in drinking water, site: liver, lesion: hepatocellular carcinoma, dosed 104 weeks, study length 104 weeks) 2500 mg/kg/day; (rat, strain Sherman, both sexes, in drinking water, site: liver, lesion: several types, types named in the paper, dosed 104 weeks, study length 104 weeks) 2120 mg/kg/day. Further, the TD50 is, setting by setting: (rat, strain Sherman, both sexes, in drinking water, site: nasal turbinate, lesion: squamous-cell carcinoma, dosed 104 weeks, study length 104 weeks) 15900 mg/kg/day; (rat, strain Wistar, both sexes, in drinking water, site: any site (literature study), lesion: several types, types named in the paper, dosed 63 weeks, study length 64 weeks) 690 mg/kg/day; (rat, strain Wistar, both sexes, in drinking water, site: liver, lesion: hepatoma, dosed 63 weeks, study length 64 weeks) 515 mg/kg/day.

Regarding `ON=C1CCCC1`, the TD50 (rat, strain Fischer 344, males, by gavage, site: liver, lesion: hepatocellular carcinoma, dosed 50 weeks, study length 83 weeks) was 70.7 mg/kg/day and the TD50 (rat, strain Fischer 344, males, by gavage, site: liver, lesion: several types, types named in the paper, dosed 50 weeks, study length 83 weeks) was 40.9 mg/kg/day.

Take `O=c1c(O)c(-c2ccc(O)cc2)oc2cc(O)cc(O)c12`: the TD50 is 55.3 mg/kg/day (inactive) (rat, strain ACI, females, in feed, site: any site (literature study), lesion: several types, types named in the paper, dosed 77 weeks, study length 77 weeks) and 17.9 mg/kg/day (inactive) (rat, strain ACI, males, in feed, site: adrenal gland, lesion: cortical adenoma, dosed 77 weeks, study length 77 weeks).

Take `CC1CC(C)(C)CC(OOC(C)(C)C)(OOC(C)(C)C)C1` (stereo unspecified): the TD50 (mouse, strain B6C3F1, females, in feed, site: any site (literature study), lesion: malignant tumor, dosed 78 weeks, study length 83 weeks) is 9310 mg/kg/day (inactive); the TD50 (mouse, strain B6C3F1, females, in feed, site: any site (literature study), lesion: one or several types, types not named, dosed 78 weeks, study length 83 weeks) is 4230 mg/kg/day (inactive); the TD50 (mouse, strain B6C3F1, females, in feed, site: lung, lesion: alveolar/bronchiolar carcinoma, dosed 78 weeks, study length 83 weeks) is 19900 mg/kg/day (inactive); the TD50 (mouse, strain B6C3F1, males, in feed, site: any site (literature study), lesion: one or several types, types not named, dosed 78 weeks, study length 83 weeks) is 4980 mg/kg/day (inactive); the TD50 (mouse, strain B6C3F1, males, in feed, site: liver, lesion: hepatocellular adenoma, dosed 78 weeks, study length 83 weeks) is 1490 mg/kg/day (inactive); the TD50 (mouse, strain B6C3F1, males, in feed, site: lung, lesion: alveolar/bronchiolar adenoma, dosed 78 weeks, study length 83 weeks) was 7.6e+09 mg/kg/day (inactive). The carcinogen call reads like this: (mouse, strain B6C3F1, females, in feed, site: liver, lesion: one or several types, types not named, dosed 78 weeks, study length 83 weeks) “negative (inactive)”; (mouse, strain B6C3F1, females, in feed, site: lung, lesion: alveolar/bronchiolar adenoma, dosed 78 weeks, study length 83 weeks) “negative (inactive)”; (mouse, strain B6C3F1, males, in feed, site: any site (literature study), lesion: malignant tumor, dosed 78 weeks, study length 83 weeks) “negative (inactive)”; (mouse, strain B6C3F1, males, in feed, site: liver, lesion: hepatocellular carcinoma, dosed 78 weeks, study length 83 weeks) “negative (inactive)”; (mouse, strain B6C3F1, males, in feed, site: lung, lesion: alveolar/bronchiolar carcinoma, dosed 78 weeks, study length 83 weeks) “negative (inactive)”.
